Assay results published in patent US8921271B2, “Herbicidal composition comprising flazasulfuron and metribuzin” (Ishihara Sangyo Kaisha, Ltd., priority 2011, dated 2014).

Columns and labels:
goosegrass [1] = assay: Test Example 2: pot test, foliar treatment at 5 leaf stage, visual growth inhibition of goosegrass; type: in vivo, Eleusine indica (L.) Gaertn.; conditions: Eleusine indica, foliar treatment at 5 leaf stage with 0.25 vol % Agral, 28th day after treatment, read-out: Growth inhibition rate (%) of goosegrass, Measured value
Experimental: Upland field soil was put into a 1/1,000,000 ha pot, and seeds of goosegrass (Eleusine indica (L.) Gaertn.) were sown. When goosegrass reached 5 leaf stage, SHIBAGEN DF (tradename) and Unimark (tradename) in predetermined amounts were diluted with water (corresponding to 200 L/ha) containing 0.25 vol % of an agricultural adjuvant (tradename: Agral, manufactured by Syngenta crop protection) and applied for foliar treatment by a small sprayer.
On the 28th day after the treatment, the state of growth of goosegrass was visually observed, and the growth inhibition rate (%) obtained in the same manner as in Test Example 1 is shown in Table 2.

goosegrass [2] = assay: Test Example 1: pot test, soil treatment, visual growth inhibition of goosegrass; type: in vivo, Eleusine indica (L.) Gaertn.; conditions: Eleusine indica, 24 h, soil treatment one day after sowing, 14th day after treatment, read-out: Growth inhibition rate (%) of goosegrass, Measured value
Experimental: Upland field soil was put into a 1/1,000,000 hectare pot, and seeds of goosegrass (Eleusine indica (L.) Gaertn.) were sown. One day later, water dispersible granules containing flazasulfuron as an active ingredient (tradename: SHIBAGEN DF, manufactured by Ishihara Sangyo Kaisha, Ltd.) and water dispersible granules containing metribuzin as an active ingredient (tradename: Unimark, manufactured by UPL) in predetermined amounts were diluted with water corresponding to 200 L/ha and applied for soil treatment by a small sprayer.
On the 14th day after the treatment, the state of growth of goosegrass was visually observed to determine the growth inhibition rate (%) (measured value) in accordance with the following evaluation standard. Further, in accordance with the Colby's formula, the growth inhibition rate (%) (calculated value) was calculated. Growth inhibition rate(%)=0 (equivalent to the non-treated area) to 100 (complete kill)

[3] = system: summergrass, giant foxtail, redroot pigweed and threeseeded copperleaf; assay: Test Example 5: field test, foliar treatment, weed coverage (residual activity); type: in vivo; conditions: for Weed coverage (%) 6th day after treatment / Weed coverage (%) 20th day after treatment / Weed coverage (%) 33rd day after treatment: field, foliar treatment with 0.25 vol % Agral, coverage relative to non-treated area; for change in weed coverage: on the 20th day after the treatment, single active ingredient, field test
Excerpt: In a field in which summergrass (Digitaria ciliaris (Retz.) Koel), giant foxtail (Setaria faberi Herrm.), redroot pigweed (Amaranthus retroflexus L.) and threeseeded copperleaf (Acalypha australis L.) emerged, was compartmentalized into compartments of 0.5×1 m. When summergrass reached from 5 to 10 leaf stage, giant foxtail reached from 6 to 7 leaf stage, threeseeded copperleaf reached from 4 to 10 leaf stage and redroot pigweed reached from 6 to 9 leaf stage, SHIBAGEN DF (tradename) and Unimark (tradename) in predetermined amounts were diluted with water (corresponding to 200 L/ha) containing 0.25 vol % of an agricultural adjuvant Agral (tradename) and applied for foliar treatment by a small sprayer in each compartment.
On the 6th, 20th and 33rd days after the treatment, the weed coverage (%) of the above four types of weeds in each compartment was visually observed, and the results are shown in Table 5 and FIG. 1. The weed coverage (%) was calculated in accordance with the following formula.
A: (the area of the ground surface covered with the weed aerial part (leaves and stem) in the treated area)
B: (the area of the ground surface covered with the weed aerial part (leaves and stem) in the non-treated area) Weed coverage(%)=(A/B)×100
In FIG. 1, x-x represents the weed coverage in the area treated with flazasulfuron, ▴-▴ represents the weed coverage in the area treated with metribuzin, and ●-● represents the weed coverage in the area treated with flazasulfuron and metribuzin in combination.

ivy-leaved morningglory = assay: Test Example 3: pot test, treatment the day after sowing, visual growth inhibition of ivy-leaved morningglory; type: in vivo, Ipomoea hederacea (L.) Jacq.; conditions: Ipomoea, treatment on the day after sowing, 14th day after treatment, read-out: Growth inhibition rate (%) of ivy-leaved morningglory, Measured value
Experimental: Upland field soil was put into a 1/1,000,000 ha pot, and seeds of ivy-leaved momingglory (Ipomoea hederacea (L.) Jacq.) were sown. On the next day, SHIBAGEN DF (tradename) and Unimark (tradename) in predetermined amounts were diluted with water corresponding to 300 L/ha and applied for […] by a small sprayer. On the 14th day after the treatment, the state of growth of ivy-leaved momingglory was visually observed, and the growth inhibition rate (%) obtained in the same manner as in Test Example 1 is shown in Table 3.

shattercane = assay: Test Example 4: pot test, soil treatment, visual growth inhibition of shattercane; type: in vivo, Sorghum bicolor (L.) Moench.; conditions: Sorghum bicolor, soil treatment on the day after sowing, 14th day after treatment, read-out: Growth inhibition rate (%) of shattercane, Measured value
Experimental: Upland field soil was put into a 1/1,000,000 ha pot, and seeds of shattercane (Sorghum bicolor (L.) Moench.) were sown. On the next day, SHIBAGEN DF (tradename) and Unimark (tradename) in predetermined amounts were diluted with water corresponding to 300 L/ha and applied for soil treatment by a small sprayer.
On the 14th day after the treatment, the state of growth of shattercane was visually observed, and the growth inhibition rate (%) obtained in the same manner as in Test Example 1 is shown in Table 4.

Row | Compound | inhibition at 800 g/ha (goosegrass [1]; dose 800 g/ha) [%] | inhibition at 1000 g/ha (goosegrass [1]; dose 1,000 g/ha) [%] | inhibition at 300 g/ha (goosegrass [2]; dose 300 g/ha) [%] | inhibition at 600 g/ha (goosegrass [2]; dose 600 g/ha) [%] | Weed coverage (%) 6th day after treatment ([3]; dose 1,200 g/ha) [%] | Weed coverage (%) 20th day after treatment ([3]; dose 1,200 g/ha) [%] | Weed coverage (%) 33rd day after treatment ([3]; dose 1,200 g/ha) [%] | change in weed coverage [3] | inhibition at 300 g/ha (ivy-leaved morningglory; dose 300 g/ha) [%] | inhibition at 2000 g/ha (shattercane; dose 2,000 g/ha) [%] | inhibition at 37.5 g/ha (goosegrass [1]; dose 37.5 g/ha) [%] | inhibition at 18.75 g/ha (goosegrass [2]; dose 18.75 g/ha, 0 = non-treated, 100 = complete kill) [%] | Weed coverage (%) 6th day after treatment ([3]; dose 37.5 g/ha) [%] | Weed coverage (%) 20th day after treatment ([3]; dose 37.5 g/ha) [%] | Weed coverage (%) 33rd day after treatment ([3]; dose 37.5 g/ha) [%] | inhibition at 100 g/ha (ivy-leaved morningglory; dose 100 g/ha) [%] | inhibition at 15 g/ha (shattercane; dose 15 g/ha) [%]
1 | CSc1nnc(C(C)(C)C)c(=O)n1N [Metribuzin, 4-amino-6-tertiary butyl-3-methylthio-1,2,4-triazin-5(4H)-one] | 83 | 90 | 55 | 73 | 19 | 24 | 35 | an increase in the weed coverage was confirmed | 0 | 20 | – | – | – | – | – | – | –
2 | COc1cc(OC)nc(NC(=O)NS(=O)(=O)c2ncccc2C(F)(F)F)n1 [Flazasulfuron, 1-(4,6-dimethoxypyrimidin-2-yl)-3-(3-trifluoromethyl-2-pyridylsulfonyl)urea] | – | – | – | – | – | – | – | an increase in the weed coverage was confirmed | – | – | 25 | 30 | 26 | 30 | 65 | 80 | 30
